Experimental data reported in US11236129B2, “IL-17A binding peptides and medical uses thereof” (Dompe' Farmaceutici S.P.A., priority 2018, dated 2022).
Where two headings read alike, the source gives them in different places. Residues, ends and D or L forms follow the SMILES beside them.

Target: IL-17RA/IL17RC dimerization induced by IL-17A (Homo sapiens, UniProt Q16552)
Experiment: IL-17RA/IL17RC dimerization assay in response to IL-17A (PathHunter Cytokine Receptor Assay)
Type: cell-based
Procedure, shortened: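 Receptor dimerization was read as chemiluminescence from complemented β-galactosidase after IL-17A at EC80 concentration for 6–16 h at 37 °C. Peptides were added 60 min before agonist, at 37 °C or room temperature, with 1% vehicle. Percent inhibition used the EC80-stimulated and vehicle wells as references.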

[1] = IL-17A at EC80, read-out: IC50 in IL-17RA/IL7RC dimerization assay

Chain of IL-17RA/IL17RC dimerization induced by IL-17A (Q16552 24-155): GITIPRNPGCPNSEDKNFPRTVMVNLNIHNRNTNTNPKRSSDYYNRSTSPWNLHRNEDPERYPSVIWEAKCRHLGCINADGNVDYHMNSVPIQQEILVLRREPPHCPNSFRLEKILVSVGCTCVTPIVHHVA

| SMILES | IC50 [1] | IC50 |
| --- | --- | --- |
| CC[C@H](C)[C@H](NC(C)=O)C(=O)N[C@@H](Cc1c[nH]cn1)C(=O)N[C@H](C(=O)N[C@H](C(=O)N[C@H](C(=O)N1CCC[C@H]1C(=O)N[C@@H](C)C(=O)N[C@@H](CC(=O)O)C(=O)N[C@H](C(=O)N[C@@H](Cc1c[nH]c2ccccc12)C(=O)N[C@@H](CC(=O)O)C(=O)N[C@@H](Cc1c[nH]c2ccccc12)C(=O)N[C@H](C(=O)N[C@@H](CC(N)=O)C(=O)N[C@@H](CCCCN)C(N)=O)[C@@H](C)CC)C(C)C)[C@@H](C)CC)[C@@H](C)O)C(C)C [SEQ ID NO: 204] (Ac-IHVTIPADVWDWINK-NH2) | < 10 µM | – |
| CC[C@H](C)[C@H](NC(C)=O)C(=O)N[C@@H](Cc1c[nH]cn1)C(=O)N[C@H](C(=O)N[C@H](C(=O)N[C@H](C(=O)N1CCC[C@H]1C(=O)N[C@@H](C)C(=O)N[C@@H](CC(=O)O)C(=O)N[C@H](C(=O)N[C@@H](Cc1c[nH]c2ccccc12)C(=O)N[C@@H](CC(=O)O)C(=O)N[C@@H](Cc1c[nH]c2ccccc12)C(=O)N[C@H](C(=O)N[C@@H](CC(N)=O)C(=O)N[C@@H](CCCCN)C(N)=O)[C@@H](C)CC)[C@@H](C)CC)[C@@H](C)CC)[C@@H](C)O)C(C)C [SEQ ID NO: 205] (Ac-IHVTIPADIWDWINK-NH2) | – | < 10 µM |
| CC[C@H](C)[C@H](NC(C)=O)C(=O)N[C@@H](Cc1c[nH]cn1)C(=O)N[C@H](C(=O)N[C@H](C(=O)N[C@H](C(=O)N1CCC[C@H]1C(=O)N[C@@H](C)C(=O)N[C@@H](CC(=O)O)C(=O)N[C@@H](CC(C)C)C(=O)N[C@@H](Cc1c[nH]cn1)C(=O)N[C@@H](CC(=O)O)C(=O)N[C@@H](Cc1c[nH]c2ccccc12)C(=O)N[C@H](C(=O)N[C@@H](CC(N)=O)C(=O)N[C@@H](CCCCN)C(N)=O)[C@@H](C)CC)[C@@H](C)CC)[C@@H](C)O)C(C)C [SEQ ID NO: 206] (Ac-IHVTIPADLHDWINK-NH2) | < 10 µM | – |
| CC[C@H](C)[C@H](NC(C)=O)C(=O)N[C@@H](Cc1c[nH]cn1)C(=O)N[C@H](C(=O)N[C@H](C(=O)N[C@H](C(=O)N1CCC[C@H]1C(=O)N[C@@H](C)C(=O)N[C@@H](CC(=O)O)C(=O)N[C@@H](CC(C)C)C(=O)N[C@@H](Cc1ccccc1)C(=O)N[C@@H](CC(=O)O)C(=O)N[C@@H](Cc1c[nH]c2ccccc12)C(=O)N[C@H](C(=O)N[C@@H](CC(N)=O)C(=O)N[C@@H](CCCCN)C(N)=O)[C@@H](C)CC)[C@@H](C)CC)[C@@H](C)O)C(C)C [SEQ ID NO: 207] (Ac-IHVTIPADLFDWINK-NH2) | < 10 µM | – |
| CC[C@H](C)[C@H](NC(C)=O)C(=O)N[C@@H](Cc1c[nH]cn1)C(=O)N[C@H](C(=O)N[C@H](C(=O)N[C@H](C(=O)N1CCC[C@H]1C(=O)N[C@@H](C)C(=O)N[C@@H](CC(=O)O)C(=O)N[C@@H](CC(C)C)C(=O)N[C@@H](Cc1c[nH]c2ccccc12)C(=O)N[C@@H](CC(N)=O)C(=O)N[C@@H](Cc1c[nH]c2ccccc12)C(=O)N[C@H](C(=O)N[C@@H](CC(N)=O)C(=O)N[C@@H](CCCCN)C(N)=O)[C@@H](C)CC)[C@@H](C)CC)[C@@H](C)O)C(C)C [SEQ ID NO: 208] (Ac-IHVTIPADLWNWINK-NH2) | < 10 µM | – |
| CC[C@H](C)[C@H](NC(C)=O)C(=O)N[C@@H](Cc1c[nH]cn1)C(=O)N[C@H](C(=O)N[C@H](C(=O)N[C@H](C(=O)N1CCC[C@H]1C(=O)N[C@@H](C)C(=O)N[C@@H](CC(=O)O)C(=O)N[C@@H](CC(C)C)C(=O)N[C@@H](Cc1c[nH]c2ccccc12)C(=O)N[C@@H](CC(=O)O)C(=O)N[C@@H](Cc1c[nH]cn1)C(=O)N[C@H](C(=O)N[C@@H](CC(N)=O)C(=O)N[C@@H](CCCCN)C(N)=O)[C@@H](C)CC)[C@@H](C)CC)[C@@H](C)O)C(C)C [SEQ ID NO: 209] (Ac-IHVTIPADLWDHINK-NH2) | < 10 µM | – |
| CC[C@H](C)[C@H](NC(C)=O)C(=O)N[C@@H](Cc1c[nH]cn1)C(=O)N[C@H](C(=O)N[C@H](C(=O)N[C@H](C(=O)N1CCC[C@H]1C(=O)N[C@@H](C)C(=O)N[C@@H](CC(=O)O)C(=O)N[C@@H](CC(C)C)C(=O)N[C@@H](Cc1c[nH]c2ccccc12)C(=O)N[C@@H](CC(=O)O)C(=O)N[C@@H](Cc1ccccc1)C(=O)N[C@H](C(=O)N[C@@H](CC(N)=O)C(=O)N[C@@H](CCCCN)C(N)=O)[C@@H](C)CC)[C@@H](C)CC)[C@@H](C)O)C(C)C [SEQ ID NO: 210] (Ac-IHVTIPADLWDFINK-NH2) | < 10 µM | – |
| CC[C@H](C)[C@H](NC(C)=O)C(=O)N[C@@H](Cc1c[nH]cn1)C(=O)N[C@H](C(=O)N[C@H](C(=O)N[C@H](C(=O)N1CCC[C@H]1C(=O)N[C@@H](C)C(=O)N[C@@H](CC(=O)O)C(=O)N[C@@H](CC(C)C)C(=O)N[C@@H](Cc1c[nH]c2ccccc12)C(=O)N[C@@H](CC(=O)O)C(=O)N[C@@H](Cc1ccc(O)cc1)C(=O)N[C@H](C(=O)N[C@@H](CC(N)=O)C(=O)N[C@@H](CCCCN)C(N)=O)[C@@H](C)CC)[C@@H](C)CC)[C@@H](C)O)C(C)C [SEQ ID NO: 211] (Ac-IHVTIPADLWDYINK-NH2) | < 10 µM | – |
| CC[C@H](C)[C@H](NC(C)=O)C(=O)N[C@@H](Cc1c[nH]cn1)C(=O)N[C@H](C(=O)N[C@H](C(=O)N[C@H](C(=O)N1CCC[C@H]1C(=O)N[C@@H](C)C(=O)N[C@@H](CC(=O)O)C(=O)N[C@@H](CC(C)C)C(=O)N[C@@H](Cc1c[nH]c2ccccc12)C(=O)N[C@@H](CC(=O)O)C(=O)N[C@@H](Cc1c[nH]c2ccccc12)C(=O)N[C@@H](CCC(=O)O)C(=O)N[C@@H](CC(N)=O)C(=O)N[C@@H](CCCCN)C(N)=O)[C@@H](C)CC)[C@@H](C)O)C(C)C [SEQ ID NO: 212] (Ac-IHVTIPADLWDWENK-NH2) | < 10 µM | – |
| CC[C@H](C)[C@H](NC(C)=O)C(=O)N[C@@H](Cc1c[nH]cn1)C(=O)N[C@H](C(=O)N[C@H](C(=O)N[C@H](C(=O)N1CCC[C@H]1C(=O)N[C@@H](C)C(=O)N[C@@H](CC(=O)O)C(=O)N[C@@H](CC(C)C)C(=O)N[C@@H](Cc1c[nH]c2ccccc12)C(=O)N[C@@H](CC(=O)O)C(=O)N[C@@H](Cc1c[nH]c2ccccc12)C(=O)N[C@@H](CCCCN)C(=O)N[C@@H](CC(N)=O)C(=O)N[C@@H](CCCCN)C(N)=O)[C@@H](C)CC)[C@@H](C)O)C(C)C [SEQ ID NO: 213] (Ac-IHVTIPADLWDWKNK-NH2) | < 10 µM | – |
| CC[C@H](C)[C@H](NC(C)=O)C(=O)N[C@@H](Cc1c[nH]cn1)C(=O)N[C@H](C(=O)N[C@H](C(=O)N[C@H](C(=O)N1CCC[C@H]1C(=O)N[C@@H](C)C(=O)N[C@@H](CC(=O)O)C(=O)N[C@@H](CC(C)C)C(=O)N[C@@H](Cc1c[nH]c2ccccc12)C(=O)N[C@@H](CC(=O)O)C(=O)N[C@@H](Cc1c[nH]c2ccccc12)C(=O)N[C@@H](C)C(=O)N[C@@H](CC(N)=O)C(=O)N[C@@H](CCCCN)C(N)=O)[C@@H](C)CC)[C@@H](C)O)C(C)C [SEQ ID NO: 214] (Ac-IHVTIPADLWDWANK-NH2) | < 10 µM | – |
| CC[C@H](C)[C@H](NC(C)=O)C(=O)N[C@@H](Cc1c[nH]cn1)C(=O)N[C@H](C(=O)N[C@H](C(=O)N[C@H](C(=O)N1CCC[C@H]1C(=O)N[C@@H](C)C(=O)N[C@@H](CC(=O)O)C(=O)N[C@@H](CC(C)C)C(=O)N[C@@H](Cc1c[nH]c2ccccc12)C(=O)N[C@@H](CC(=O)O)C(=O)N[C@@H](Cc1c[nH]c2ccccc12)C(=O)NCC(=O)N[C@@H](CC(N)=O)C(=O)N[C@@H](CCCCN)C(N)=O)[C@@H](C)CC)[C@@H](C)O)C(C)C [SEQ ID NO: 215] (Ac-IHVTIPADLWDWGNK-NH2) | < 10 µM | – |
| CC[C@H](C)[C@H](NC(C)=O)C(=O)N[C@@H](Cc1c[nH]cn1)C(=O)N[C@H](C(=O)N[C@H](C(=O)N[C@H](C(=O)N1CCC[C@H]1C(=O)N[C@@H](C)C(=O)N[C@@H](CC(=O)O)C(=O)N[C@@H](CC(C)C)C(=O)N[C@@H](Cc1c[nH]c2ccccc12)C(=O)N[C@@H](CC(=O)O)C(=O)N[C@@H](Cc1c[nH]c2ccccc12)C(=O)N[C@@H](CC(C)C)C(=O)N[C@@H](CC(N)=O)C(=O)N[C@@H](CCCCN)C(N)=O)[C@@H](C)CC)[C@@H](C)O)C(C)C [SEQ ID NO: 216] (Ac-IHVTIPADLWDWLNK-NH2) | < 10 µM | – |
| CC[C@H](C)[C@H](NC(C)=O)C(=O)N[C@@H](Cc1c[nH]cn1)C(=O)N[C@H](C(=O)N[C@H](C(=O)N[C@H](C(=O)N1CCC[C@H]1C(=O)N[C@@H](C)C(=O)N[C@@H](CC(=O)O)C(=O)N[C@@H](CC(C)C)C(=O)N[C@@H](Cc1c[nH]c2ccccc12)C(=O)N[C@@H](CC(=O)O)C(=O)N[C@@H](Cc1c[nH]c2ccccc12)C(=O)N1CCC[C@H]1C(=O)N[C@@H](CC(N)=O)C(=O)N[C@@H](CCCCN)C(N)=O)[C@@H](C)CC)[C@@H](C)O)C(C)C [SEQ ID NO: 217] (Ac-IHVTIPADLWDWPNK-NH2) | < 10 µM | – |
| CC[C@H](C)[C@H](NC(C)=O)C(=O)N[C@@H](Cc1c[nH]cn1)C(=O)N[C@H](C(=O)N[C@H](C(=O)N[C@H](C(=O)N1CCC[C@H]1C(=O)N[C@@H](C)C(=O)N[C@@H](CC(=O)O)C(=O)N[C@@H](CC(C)C)C(=O)N[C@@H](Cc1c[nH]c2ccccc12)C(=O)N[C@@H](CC(=O)O)C(=O)N[C@@H](Cc1c[nH]c2ccccc12)C(=O)N[C@@H](Cc1ccccc1)C(=O)N[C@@H](CC(N)=O)C(=O)N[C@@H](CCCCN)C(N)=O)[C@@H](C)CC)[C@@H](C)O)C(C)C [SEQ ID NO: 218] (Ac-IHVTIPADLWDWFNK-NH2) | < 10 µM | – |
| CC[C@H](C)[C@H](NC(C)=O)C(=O)N[C@@H](Cc1c[nH]cn1)C(=O)N[C@H](C(=O)N[C@H](C(=O)N[C@H](C(=O)N1CCC[C@H]1C(=O)N[C@@H](C)C(=O)N[C@@H](CC(=O)O)C(=O)N[C@@H](CC(C)C)C(=O)N[C@@H](Cc1c[nH]c2ccccc12)C(=O)N[C@@H](CC(=O)O)C(=O)N[C@@H](Cc1c[nH]c2ccccc12)C(=O)N[C@@H](Cc1ccc(O)cc1)C(=O)N[C@@H](CC(N)=O)C(=O)N[C@@H](CCCCN)C(N)=O)[C@@H](C)CC)[C@@H](C)O)C(C)C [SEQ ID NO: 219] (Ac-IHVTIPADLWDWYNK-NH2) | < 10 µM | – |
